According to ChEMBL document CHEMBL1201862, “PubChem BioAssay data set” (2004):
The source made the active and inactive calls.

Key:
[1] = molecular target: T1, Short transient receptor potential channel 4 (Mus musculus, UniProt Q9QUQ5); assay: block of DAMGO-driven TRPC4 calcium entry – cell-based, HEK293 TRPC4/mu-opioid, Fluo-4 calcium, dose response (AID 434942); assay type: functional;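 note: potency of inhibitors blocking the TRPC4 calcium response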
T1 sequence (Q9QUQ5 whole entry): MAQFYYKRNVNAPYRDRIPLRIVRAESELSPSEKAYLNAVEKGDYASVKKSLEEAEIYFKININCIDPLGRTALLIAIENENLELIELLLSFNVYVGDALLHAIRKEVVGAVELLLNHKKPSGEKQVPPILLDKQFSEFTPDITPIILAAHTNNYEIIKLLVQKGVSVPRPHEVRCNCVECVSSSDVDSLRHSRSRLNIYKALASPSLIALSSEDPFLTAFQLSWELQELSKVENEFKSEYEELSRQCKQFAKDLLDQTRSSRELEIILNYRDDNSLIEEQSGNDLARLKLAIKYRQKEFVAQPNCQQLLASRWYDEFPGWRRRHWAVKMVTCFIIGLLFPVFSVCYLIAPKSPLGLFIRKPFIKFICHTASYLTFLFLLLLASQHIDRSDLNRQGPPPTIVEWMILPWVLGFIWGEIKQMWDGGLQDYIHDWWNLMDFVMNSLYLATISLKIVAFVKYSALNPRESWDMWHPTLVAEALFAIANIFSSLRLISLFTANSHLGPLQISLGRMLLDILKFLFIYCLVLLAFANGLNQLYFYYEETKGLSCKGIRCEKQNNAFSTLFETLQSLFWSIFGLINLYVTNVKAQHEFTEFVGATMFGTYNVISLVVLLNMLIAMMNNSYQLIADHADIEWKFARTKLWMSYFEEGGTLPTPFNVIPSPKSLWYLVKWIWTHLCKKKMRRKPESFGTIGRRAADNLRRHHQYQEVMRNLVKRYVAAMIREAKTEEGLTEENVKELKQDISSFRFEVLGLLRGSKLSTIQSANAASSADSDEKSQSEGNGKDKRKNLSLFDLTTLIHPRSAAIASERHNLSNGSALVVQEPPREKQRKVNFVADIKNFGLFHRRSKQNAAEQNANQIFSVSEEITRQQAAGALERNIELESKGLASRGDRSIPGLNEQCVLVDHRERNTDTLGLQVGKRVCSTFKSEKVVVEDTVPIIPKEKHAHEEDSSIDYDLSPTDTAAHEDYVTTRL

[2] = molecular target: Delta-type opioid receptor (Homo sapiens, UniProt P41143); assay: Counterscreen for agonists of heterodimerization of the mu 1 (OPRM1) and delta 1 (OPRD1) opioid receptors: Luminescence-based cell-based high throughput dose response assay to identify agonists of OPRD1 homodimerization. [Related pubchem assays (depositor defined):AID504326, AID504355, AID504692, AID504904, AID504905]; assay type: functional
Delta-type opioid receptor, sequence (P41143 whole entry): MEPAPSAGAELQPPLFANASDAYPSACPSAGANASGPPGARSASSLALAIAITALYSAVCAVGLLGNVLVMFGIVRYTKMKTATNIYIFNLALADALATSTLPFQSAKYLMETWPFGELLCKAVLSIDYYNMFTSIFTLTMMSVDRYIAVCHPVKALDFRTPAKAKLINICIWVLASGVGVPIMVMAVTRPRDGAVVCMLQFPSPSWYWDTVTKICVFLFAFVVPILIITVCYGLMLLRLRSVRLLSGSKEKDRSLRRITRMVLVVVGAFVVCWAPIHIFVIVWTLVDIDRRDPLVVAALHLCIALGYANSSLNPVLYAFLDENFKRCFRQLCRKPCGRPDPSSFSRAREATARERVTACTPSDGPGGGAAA

Mu-type opioid receptor = Mu-type opioid receptor (Homo sapiens, UniProt P35372); assay: Counterscreen for agonists of heterodimerization of the mu 1 (OPRM1) and delta 1 (OPRD1) opioid receptors: Luminescence-based cell-based high throughput dose response assay to identify agonists of OPRM1 homodimerization.; assay type: functional;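 note: U2OS cells expressing OPRM1 and beta-arrestin as split beta-galactosidase partners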
Mu-type opioid receptor, sequence (P35372 whole entry): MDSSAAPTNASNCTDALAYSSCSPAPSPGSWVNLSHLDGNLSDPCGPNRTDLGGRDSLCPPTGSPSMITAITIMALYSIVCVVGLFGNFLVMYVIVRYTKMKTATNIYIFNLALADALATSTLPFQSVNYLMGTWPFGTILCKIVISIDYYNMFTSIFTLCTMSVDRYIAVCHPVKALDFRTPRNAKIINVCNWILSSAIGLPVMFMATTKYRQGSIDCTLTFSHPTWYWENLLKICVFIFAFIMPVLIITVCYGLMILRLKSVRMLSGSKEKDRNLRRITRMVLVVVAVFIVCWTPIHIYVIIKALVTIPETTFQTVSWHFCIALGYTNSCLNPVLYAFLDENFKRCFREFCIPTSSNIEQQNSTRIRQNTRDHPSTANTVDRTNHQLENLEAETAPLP

[3] = molecular target: 5-hydroxytryptamine receptor 5A (Homo sapiens, UniProt P47898); assay: Counterscreen for agonists of OPRM1-OPRD1 heterodimerization: luminescence-based cell-based high throughput dose response assay to identify agonists of 5-hydroxytryptamine (serotonin) 5A receptor (HTR5A). [Related pubchem assays (depositor defined):AID504326, AID504355, AID504692, AID504904, AID504905]; assay type: functional
5-hydroxytryptamine receptor 5A, sequence (P47898 whole entry): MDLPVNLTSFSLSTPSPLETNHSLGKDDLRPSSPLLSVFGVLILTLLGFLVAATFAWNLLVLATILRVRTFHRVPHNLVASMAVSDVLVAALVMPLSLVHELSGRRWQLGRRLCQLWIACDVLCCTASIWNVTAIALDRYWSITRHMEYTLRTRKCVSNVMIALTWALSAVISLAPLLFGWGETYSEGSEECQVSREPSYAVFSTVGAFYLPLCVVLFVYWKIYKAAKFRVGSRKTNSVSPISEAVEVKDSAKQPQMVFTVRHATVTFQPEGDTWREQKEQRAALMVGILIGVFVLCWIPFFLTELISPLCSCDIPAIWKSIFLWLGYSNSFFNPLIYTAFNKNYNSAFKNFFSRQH

Vero = assay: cells; assay type: functional; details: Chlorocebus sabaeus
Streptococcus = assay: GAS UMAA2166 growth inhibition – luminescence, BacTiterGlo, counter-screen for streptokinase expression inhibitor project, dose response (AID 1915); assay type: functional, organism-based;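 note: potency for reduction of bacterial viability or growth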
Streptokinase A = molecular target: T2, Streptokinase A (Streptococcus pyogenes serotype M1, UniProt P10520); assay: viability-normalized secreted streptokinase activity reduction – plasminogen activation absorbance, OD405, dose response (AID 1914); assay type: functional, Streptococcus pyogenes M1 GAS;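 note: secreted streptokinase activity via plasminogen activation per viability signal from cell pellet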
T2 sequence (P10520 whole entry): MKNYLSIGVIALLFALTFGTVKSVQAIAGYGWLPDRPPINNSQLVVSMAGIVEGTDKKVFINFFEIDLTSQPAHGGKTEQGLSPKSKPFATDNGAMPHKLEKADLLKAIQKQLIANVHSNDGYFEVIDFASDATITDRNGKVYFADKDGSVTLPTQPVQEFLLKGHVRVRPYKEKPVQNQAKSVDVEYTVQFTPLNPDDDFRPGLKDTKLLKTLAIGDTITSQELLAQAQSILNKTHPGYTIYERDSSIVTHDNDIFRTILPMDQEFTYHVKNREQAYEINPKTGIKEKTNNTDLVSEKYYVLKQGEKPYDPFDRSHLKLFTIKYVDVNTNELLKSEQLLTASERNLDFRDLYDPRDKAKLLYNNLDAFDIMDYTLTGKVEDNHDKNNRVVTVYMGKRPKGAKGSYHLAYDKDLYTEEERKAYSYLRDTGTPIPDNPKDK

[4] = molecular target: T3, Calpain-2 catalytic subunit (Sus scrofa, UniProt P43367); assay: m-calpain protease blockers, concentration series – biochemical, fluorogenic peptide substrate, dose response (AID 1420); assay type: functional
T3 sequence (P43367 whole entry): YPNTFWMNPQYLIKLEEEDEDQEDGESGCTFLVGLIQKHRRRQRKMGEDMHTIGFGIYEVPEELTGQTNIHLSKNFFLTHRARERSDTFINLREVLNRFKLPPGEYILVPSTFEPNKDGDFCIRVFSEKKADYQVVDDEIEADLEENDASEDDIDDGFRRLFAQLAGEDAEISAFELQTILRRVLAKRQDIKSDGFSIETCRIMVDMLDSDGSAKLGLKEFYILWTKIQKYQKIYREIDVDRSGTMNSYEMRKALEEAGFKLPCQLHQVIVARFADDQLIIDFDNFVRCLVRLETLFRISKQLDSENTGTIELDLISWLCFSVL

[5] = molecular target: Heat shock protein HSP 90-alpha (Homo sapiens, UniProt P07900); assay type: functional, organism-based
[6] = decrease of insulin promoter-GFP reporter – imaging, high-content screening, mouse beta cells (AID 1628); assay type: functional; details: MIN6
[7] = MIN6 cell viability loss – mouse insulinoma, cytotoxicity control, dose response (AID 2122); assay type: functional;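 note: confirmatory high-throughput counterscreen run to flag cytotoxic compounds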
Large T antigen = Large T antigen (Simian virus 40, UniProt P03070); assay type: functional, Betapolyomavirus macacae;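 note: Confirmatory-stage PubChem screen for compounds that inhibit SV40 T antigen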
Large T antigen, sequence (P03070 whole entry): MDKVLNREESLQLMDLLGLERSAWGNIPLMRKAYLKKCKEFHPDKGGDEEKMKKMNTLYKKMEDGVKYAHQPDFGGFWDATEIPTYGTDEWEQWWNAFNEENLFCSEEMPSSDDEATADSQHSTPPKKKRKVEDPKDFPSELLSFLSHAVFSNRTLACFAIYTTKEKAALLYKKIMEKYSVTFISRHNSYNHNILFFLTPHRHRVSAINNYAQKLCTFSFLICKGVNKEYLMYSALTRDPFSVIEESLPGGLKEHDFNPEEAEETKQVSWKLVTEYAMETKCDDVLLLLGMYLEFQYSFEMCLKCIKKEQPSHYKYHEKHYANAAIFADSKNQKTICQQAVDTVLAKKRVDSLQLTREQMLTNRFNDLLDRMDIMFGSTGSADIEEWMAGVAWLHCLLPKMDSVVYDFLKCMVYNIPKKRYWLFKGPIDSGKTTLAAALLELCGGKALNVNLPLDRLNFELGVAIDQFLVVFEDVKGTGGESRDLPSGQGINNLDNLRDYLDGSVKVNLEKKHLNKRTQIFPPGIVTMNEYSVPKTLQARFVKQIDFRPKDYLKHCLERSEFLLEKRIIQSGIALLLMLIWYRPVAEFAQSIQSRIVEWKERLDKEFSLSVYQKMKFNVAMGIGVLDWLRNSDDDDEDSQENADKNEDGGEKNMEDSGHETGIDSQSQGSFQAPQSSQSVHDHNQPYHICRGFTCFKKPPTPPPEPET

[8] = molecular target: T4, Long-chain-fatty-acid--AMP ligase FadD28 (Mycobacterium tuberculosis, UniProt P9WQ59); assay: Fluorescence polarization aasay to screen for inhibitors that compete for the binding of FadD28 to a bisubstrate Measured in Biochemical System Using Plate Reader - 2147-01_Inhibitor_Dose_CherryPick_Activity.; assay type: functional, Mycobacterium tuberculosis H37Rv
T4 sequence (P9WQ59 whole entry): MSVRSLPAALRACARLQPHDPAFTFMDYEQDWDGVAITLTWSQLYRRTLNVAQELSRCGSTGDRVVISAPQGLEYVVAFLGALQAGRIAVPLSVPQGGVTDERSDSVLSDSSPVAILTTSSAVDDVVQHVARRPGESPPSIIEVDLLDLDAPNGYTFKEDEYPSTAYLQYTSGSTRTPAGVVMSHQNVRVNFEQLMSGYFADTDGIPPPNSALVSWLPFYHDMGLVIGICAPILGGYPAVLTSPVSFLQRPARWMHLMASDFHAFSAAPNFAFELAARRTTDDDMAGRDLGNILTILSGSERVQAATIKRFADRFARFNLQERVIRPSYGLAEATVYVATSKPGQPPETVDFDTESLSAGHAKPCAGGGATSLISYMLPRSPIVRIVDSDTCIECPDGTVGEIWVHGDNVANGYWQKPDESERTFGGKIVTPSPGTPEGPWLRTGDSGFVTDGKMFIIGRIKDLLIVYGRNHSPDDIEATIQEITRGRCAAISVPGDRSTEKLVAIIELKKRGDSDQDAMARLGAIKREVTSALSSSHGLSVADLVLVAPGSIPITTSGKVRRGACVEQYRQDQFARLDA

[9] = molecular target: E3 ubiquitin-protein ligase Mdm2 (Homo sapiens, UniProt Q00987); assay: MDM2-luc reporter signal enhancers, multi-concentration potency testing, MDM2 ubiquitin-protein ligase inhibitor program, whole-cell format, luminescence detection, 384-well microplate (AID 1394); assay type: functional;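 note: MDM2 E3 inhibitors raise luminescence so EC50 is for signal enhancement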
E3 ubiquitin-protein ligase Mdm2, sequence (Q00987 whole entry): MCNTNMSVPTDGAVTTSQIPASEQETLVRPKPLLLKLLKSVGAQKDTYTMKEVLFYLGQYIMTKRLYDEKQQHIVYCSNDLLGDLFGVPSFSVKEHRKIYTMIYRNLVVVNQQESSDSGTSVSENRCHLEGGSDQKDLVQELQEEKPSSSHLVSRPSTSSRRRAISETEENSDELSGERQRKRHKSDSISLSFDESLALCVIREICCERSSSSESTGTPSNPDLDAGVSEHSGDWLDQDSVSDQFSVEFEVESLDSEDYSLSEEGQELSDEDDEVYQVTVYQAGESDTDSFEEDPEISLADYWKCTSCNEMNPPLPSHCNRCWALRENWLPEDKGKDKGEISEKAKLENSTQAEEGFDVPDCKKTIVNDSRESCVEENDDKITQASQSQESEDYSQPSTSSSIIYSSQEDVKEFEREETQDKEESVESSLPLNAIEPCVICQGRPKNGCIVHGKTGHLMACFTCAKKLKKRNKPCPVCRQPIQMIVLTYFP

[10] = molecular target: T5, Lysine-specific demethylase 4C (Homo sapiens, UniProt Q9H3R0); assay: inhibition of JMJD2C H3K9me3 demethylation – biochemical, DELFIA europium, cherry-picked samples, dose response (AID 488835); assay type: functional
T5 sequence (Q9H3R0 whole entry): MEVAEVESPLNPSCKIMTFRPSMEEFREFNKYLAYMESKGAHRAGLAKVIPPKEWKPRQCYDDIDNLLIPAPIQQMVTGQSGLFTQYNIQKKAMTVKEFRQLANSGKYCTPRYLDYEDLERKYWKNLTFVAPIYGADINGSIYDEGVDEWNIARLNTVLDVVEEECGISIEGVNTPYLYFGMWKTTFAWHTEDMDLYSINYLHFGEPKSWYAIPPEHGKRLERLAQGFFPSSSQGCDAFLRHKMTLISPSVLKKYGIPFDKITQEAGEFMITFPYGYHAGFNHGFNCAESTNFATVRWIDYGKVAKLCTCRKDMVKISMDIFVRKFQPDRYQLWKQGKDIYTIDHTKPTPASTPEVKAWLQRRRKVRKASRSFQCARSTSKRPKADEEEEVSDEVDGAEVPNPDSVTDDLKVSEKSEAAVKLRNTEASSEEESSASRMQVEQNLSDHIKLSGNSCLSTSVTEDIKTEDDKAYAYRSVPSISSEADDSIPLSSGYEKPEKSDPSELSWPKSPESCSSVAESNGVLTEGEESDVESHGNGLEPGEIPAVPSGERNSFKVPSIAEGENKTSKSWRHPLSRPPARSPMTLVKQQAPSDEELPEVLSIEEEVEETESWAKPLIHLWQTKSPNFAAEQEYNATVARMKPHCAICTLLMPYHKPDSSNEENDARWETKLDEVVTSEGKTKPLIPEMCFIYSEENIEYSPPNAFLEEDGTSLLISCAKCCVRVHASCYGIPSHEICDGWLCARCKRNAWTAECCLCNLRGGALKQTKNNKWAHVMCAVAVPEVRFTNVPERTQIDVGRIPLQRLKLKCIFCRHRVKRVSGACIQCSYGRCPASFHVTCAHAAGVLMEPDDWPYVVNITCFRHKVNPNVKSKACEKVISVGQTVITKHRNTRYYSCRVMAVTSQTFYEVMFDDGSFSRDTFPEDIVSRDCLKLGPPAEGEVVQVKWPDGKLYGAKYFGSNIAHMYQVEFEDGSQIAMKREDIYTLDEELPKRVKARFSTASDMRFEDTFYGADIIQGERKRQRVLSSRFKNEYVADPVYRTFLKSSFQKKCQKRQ

Escherichia coli = assay: microbe, parasite or virus in culture

Question: Which results are given for `CN(C)C(CNC(=O)c1cccc(C(F)(F)F)c1)c1ccco1` (stereo unspecified)?
Answer: EC50 [1]: 0.376 µM (active); EC50 [2]: > 92.4 µM (inactive); EC50 (Mu-type opioid receptor): > 92.4 µM (inactive); EC50 [3]: > 92.4 µM (inactive)

Question: With `CCCc1ccc(Oc2c[nH]nc2-c2ccc(O)c(C)c2O)cc1` as the compound, how does the CC50 (Vero) read?
Answer: > 25 µM (active)

Question: And the EC50 (Streptococcus)?
Answer: 8.83 µM (active)

Question: And the EC50 (Streptokinase A)?
Answer: > 150 µM (not active)

Question: What about the IC50 [4] of the same compound?
Answer: 38.2 µM (not active)

Question: What about the AC50 [5] of the same compound?
Answer: 3.08 µM (active)

Question: For `Cn1c(=O)c2c(nc(NCc3ccc4c(c3)OCO4)n2Cc2ccccc2)n(C)c1=O`, which IC50 [6] is on record?
Answer: 0.696 µM (active)

Question: What about the IC50 [7] of the same compound?
Answer: 0.541 µM (active)

Question: What does the source list for `CCN1C(=O)C(=C/C=C/c2ccco2)C(=O)N(CC)C1=S`?
Answer: IC50 (Large T antigen): 45.3 µM (active); AC50 [8]: > 100 µM (inactive); EC50 [9]: 25 µM (not active); AC50 [10]: 1.18 µM (active)

Question: For `Cc1nc(SCc2ccc(C(=O)O)cc2)c2c(C)c(C)sc2n1`, which AC50 (Escherichia coli) is on record?
Answer: 28.5 µM (active)
